Experimental findings from patent US20250017936A1, “CELL-POTENT BISUBSTRATE INHIBITORS FOR NICOTINAMIDE N-[…] (NNMT) AND USES THEREOF” (priority 2021, published 2025) are described below.

The target of experiment [1] is T1, NNMT (Homo sapiens (Human), UniProt P40261). Kind of experiment: biochemical. The format is biochemical.
Experiment [2] deals with T1, NNMT. Kind of experiment: Fluorescence polarization (FP)-based competition assay with probe II138. The format is binding. The note with it: read-out: Ki (FP Assay).
Setting [3] is: SAHH-coupled Assay IC50, 10 μM SAM, 10 μM nicotinamide (Km), 0.1 μM NNMT.

Read-outs that look alike come from different tables or passages of the source.

T1 sequence (P40261 whole entry): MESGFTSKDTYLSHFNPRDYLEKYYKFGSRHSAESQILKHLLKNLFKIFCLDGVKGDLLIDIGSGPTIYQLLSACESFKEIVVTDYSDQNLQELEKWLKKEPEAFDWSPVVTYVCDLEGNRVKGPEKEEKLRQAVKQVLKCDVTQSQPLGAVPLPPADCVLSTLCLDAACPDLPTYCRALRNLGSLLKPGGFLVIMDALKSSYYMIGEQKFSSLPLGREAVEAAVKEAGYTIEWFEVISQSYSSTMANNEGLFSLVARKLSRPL

As a reminder, the IC50 is the concentration at which inhibition is half-maximal. `CC(=O)N(CC#Cc1cccc(C(N)=O)c1)C[C@H]1O[C@@H](n2cnc3c(N)ncnc32)[C@H](O)[C@@H]1O` [II661, 3-(3-(N-(((2R,3S,4R,5R)-5-(6-amino-9H-purin-9-yl)-3,4-dihydroxytetrahydrofuran-2-yl)methyl)acetamido)prop-1-yn-1-yl)benzamide] had an IC50 on NNMT [1] (setting [3]) of 7600 nM.
With `CC(=O)N(CC#Cc1cccc(C(N)=O)c1)C[C@H]1C[C@@H](n2ccc3c(N)ncnc32)[C@H](O)[C@@H]1O` [II642, 3-(3-(N-(((1R,2R,3S,4R)-4-(4-amino-7H-pyrrolo[2,3-d]pyrimidin-7-yl)-2,3-dihydroxycyclopentyl)methyl)acetamido)prop-1-yn-1-yl) benzamide], the Ki at NNMT [2] was determined as 70 ± 8 nM; on NNMT [1] (read-out: Ki, app) it was 4 ± 0.02 nM. In addition, the half-maximal inhibitory concentration (IC50) is 25 ± 7 nM at NNMT [1] (10 μM SAM, 10 μM nicotinamide (Km), 0.1 μM NNMT, read-out: SAHH-coupled Assay IC50); 25 ± 7 nM on NNMT [1] (10 μM SAM, 10 μM nicotinamide (Km), 0.1 μM NNMT, read-out: SAHH-coupled assay IC50); 93 ± 7 nM on NNMT [1] (substrate and SAM concentration at 4 Km, read-out: SAHH-coupled Assay IC50).
Consider `CCN(CC#Cc1cccc(C(N)=O)c1)C[C@H]1C[C@@H](n2ccc3c(Cl)ncnc32)[C@H](O)[C@@H]1O` [II542, 3-(3-((((1R,2R,3S,4R)-4-(4-chloro-7H-pyrrolo[2,3-d]pyrimidin-7-yl)-2,3dihydroxycyclopentyl)methyl)(ethyl)amino)prop-1-yn-1-yl)benzamide], for which the IC50 against NNMT [1] (setting [3]) came to 7700 nM.
